The results in this text go back to ChEMBL document CHEMBL1147269, “Cribrarione B, a new naphthoquinone pigment from the myxomycete Cribraria cancellata” (J Nat Prod, 2003).

The assay concerns Bacillus subtilis. The assay is described as follows: Antimicrobial activity against Bacillus subtilis. It counts as functional, organism-based.

Structures are written as SMILES. Activity calls are given as the source filed them. The calls are words filed in the database; no cut-off is given here.

For the compound `CC(O)c1cc(O)c2c(c1O)C(=O)C=C(O)C2=O` (stereo unspecified), the outcome was inactive.
